According to PMC12616515, “Thermostable Bacterial Esterases From Lipase Family 1.5 Degrade Compostable Polyesters PBAT and PBSA” (MicrobiologyOpen, 2025):

Experiments:
[1] = molecular target: T1, Tl_Est64 (Thermosyntropha lipolytica, UniProt A0A1M5LUW5); assay: pNP release, absorbance […] nm; type: biochemical
T1 construct: gene SAMN02745221_00755
T1 sequence (A0A1M5LUW5 29-416): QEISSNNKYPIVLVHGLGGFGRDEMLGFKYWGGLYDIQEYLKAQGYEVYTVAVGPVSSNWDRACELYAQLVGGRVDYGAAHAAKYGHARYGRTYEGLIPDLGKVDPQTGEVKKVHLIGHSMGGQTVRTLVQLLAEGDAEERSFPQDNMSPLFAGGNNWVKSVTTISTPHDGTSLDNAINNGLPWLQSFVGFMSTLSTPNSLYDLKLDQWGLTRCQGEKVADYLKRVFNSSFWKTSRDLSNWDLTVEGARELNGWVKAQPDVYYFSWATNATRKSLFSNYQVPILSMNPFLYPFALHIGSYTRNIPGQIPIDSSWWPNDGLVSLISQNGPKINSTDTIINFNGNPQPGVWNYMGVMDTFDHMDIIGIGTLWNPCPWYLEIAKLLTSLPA

[2] = molecular target: T2, Cl_EstA (Clostridium botulinum, UniProt A5I055)
T2 construct: gene lipA

[3] = molecular target: T3, Dt_Est (Desulfurispora thermophila, UniProt Z9TUI6NBX6); assay: pNP release, absorbance […] nm; type: biochemical
T3 sequence (Z9TUI6NBX6 32-423): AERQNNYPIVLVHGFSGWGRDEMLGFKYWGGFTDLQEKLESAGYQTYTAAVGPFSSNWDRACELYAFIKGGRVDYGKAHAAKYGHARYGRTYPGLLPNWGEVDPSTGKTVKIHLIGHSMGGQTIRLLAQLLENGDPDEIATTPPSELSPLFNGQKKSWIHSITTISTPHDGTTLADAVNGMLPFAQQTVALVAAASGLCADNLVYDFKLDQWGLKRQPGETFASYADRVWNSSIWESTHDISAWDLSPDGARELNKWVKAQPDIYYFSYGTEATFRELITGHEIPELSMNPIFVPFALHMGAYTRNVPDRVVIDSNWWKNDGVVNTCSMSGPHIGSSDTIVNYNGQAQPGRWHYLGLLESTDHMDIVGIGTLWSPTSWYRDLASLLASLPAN

T2 sequence (A5I055 1-480): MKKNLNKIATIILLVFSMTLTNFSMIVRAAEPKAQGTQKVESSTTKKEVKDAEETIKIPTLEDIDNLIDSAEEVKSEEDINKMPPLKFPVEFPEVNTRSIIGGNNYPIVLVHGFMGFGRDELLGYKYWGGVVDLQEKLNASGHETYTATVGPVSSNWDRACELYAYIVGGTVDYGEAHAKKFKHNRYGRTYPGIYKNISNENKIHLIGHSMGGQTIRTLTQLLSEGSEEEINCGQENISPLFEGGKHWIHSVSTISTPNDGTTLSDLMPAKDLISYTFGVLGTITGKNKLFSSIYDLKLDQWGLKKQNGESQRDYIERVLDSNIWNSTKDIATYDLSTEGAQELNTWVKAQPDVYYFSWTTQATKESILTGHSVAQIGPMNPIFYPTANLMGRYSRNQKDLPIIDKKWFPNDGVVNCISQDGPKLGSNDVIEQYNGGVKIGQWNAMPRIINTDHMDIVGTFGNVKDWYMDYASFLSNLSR

CCCC(=O)Oc1ccc([N+](=O)[O-])cc1 [pNP butyrate]
pNP release, absorbance 405 nm [1]: Tl_Est64 showed the highest overall activity with the substrates pNP butyrate and pNP valerate

CCCCC(=O)Oc1ccc([N+](=O)[O-])cc1 [pNP valerate]
pNP release, absorbance 405 nm [1]: Tl_Est64 showed the highest overall activity with the substrates pNP butyrate and pNP valerate

CC(=O)Oc1ccc([N+](=O)[O-])cc1 [pNP acetate]
pNP release, absorbance 405 nm [2]: except Cl_EstA, which had the best activity with pNP acetate

CCCCCCCC(=O)Oc1ccc([N+](=O)[O-])cc1 [pNP octanoate]
pNP release, absorbance 405 nm [3]: Dt_Est showed the highest activity with pNP octanoate
